Measurements published in ChEMBL document CHEMBL1955725, “Structure-guided lead optimization of triazolopyrimidine-ring substituents identifies potent Plasmodium falciparum dihydroorotate dehydrogenase inhibitors with clinical candidate potential” (J Med Chem, 2011).

System: not listed separately
Assay: Inhibition of Plasmodium berghei C-terminal hexa-His tagged DHODH expressed in Escherichia coli by DCIP reduction assay

| Structure (SMILES) | IC50 [nM] |
| --- | --- |
| COCCOc1nc2nc(C)cc(Nc3cccc(Cl)c3)n2n1 | > 10000 |
| Cc1cc(Nc2ccc(C(F)(F)F)cc2)n2nc(C(C)(C)C)nc2n1 | 15000 |
| CCOc1nc2nc(C)cc(Nc3cccc(Cl)c3)n2n1 | 1900 |
| Cc1cc(Nc2ccc(Cl)cc2)n2nc(C3CC3)nc2n1 | 2800 |
| CCOc1nc2nc(C)cc(Nc3ccc(Cl)cc3)n2n1 | 1600 |
| CCC(F)(F)c1nc2nc(C)cc(Nc3cccc(Cl)c3)n2n1 | 1400 |
| COc1nc2nc(C)cc(Nc3ccc(Cl)cc3)n2n1 | 1200 |
| CCC(C)c1nc2nc(C)cc(Nc3ccc(C(F)(F)F)cc3)n2n1 (configuration not stated) | 4600 |

System: Plasmodium falciparum
Assay: Antimalarial activity against Plasmodium falciparum 3D7 by [3H]hypoxanthine incorporation assay in presence of human serum
Format: functional, organism-based

| Structure (SMILES) | EC50 [nM] |
| --- | --- |
| Cc1cc(Nc2cccc(Cl)c2)n2nc(CO)nc2n1 | > 10000 |
| Cc1cc(Nc2ccc(Cl)cc2)n2nc(CO)nc2n1 | > 2500 |
| Cc1cc(Nc2ccc(C(F)(F)F)cc2)n2nc(S(C)(=O)=O)nc2n1 | 170 |
| Cc1cc(Nc2ccc(C(F)(F)F)cc2)n2nc(C(C)(C)C)nc2n1 | 290 |
| Cc1cc(Nc2ccc(S(F)(F)(F)(F)F)cc2)n2nc(S(C)(=O)=O)nc2n1 | 2000 |
| CCOc1nc2nc(C)cc(Nc3cccc(Cl)c3)n2n1 | 4400 |
| CSc1nc2nc(C)cc(Nc3ccc(Cl)cc3)n2n1 | 150 |
| CNCCc1nc2nc(C)cc(Nc3cccc(Cl)c3)n2n1 | > 2500 |
| Cc1cc(Nc2ccc(Cl)cc2)n2nc(C3CC3)nc2n1 | 6800 |
| CNCCc1nc2nc(C)cc(Nc3ccc(Cl)cc3)n2n1 | > 2500 |
| Cc1cc(Nc2ccc(C(F)(F)F)cc2)n2nc(CC3CC3)nc2n1 | 3400 |
| Cc1cc(Nc2ccc(Cl)cc2)n2nc(S(C)(=O)=O)nc2n1 | 1400 |
| CCOc1nc2nc(C)cc(Nc3ccc(Cl)cc3)n2n1 | 1300 |
| CCC(F)(F)c1nc2nc(C)cc(Nc3cccc(Cl)c3)n2n1 | 1200 |
| COc1nc2nc(C)cc(Nc3ccc(Cl)cc3)n2n1 | 590 |
| CCC(C)c1nc2nc(C)cc(Nc3ccc(C(F)(F)F)cc3)n2n1 (configuration not stated) | 270 |

Biological target: Dihydroorotate dehydrogenase (quinone), mitochondrial (Homo sapiens, UniProt Q02127)
Sequence (Q02127 whole entry): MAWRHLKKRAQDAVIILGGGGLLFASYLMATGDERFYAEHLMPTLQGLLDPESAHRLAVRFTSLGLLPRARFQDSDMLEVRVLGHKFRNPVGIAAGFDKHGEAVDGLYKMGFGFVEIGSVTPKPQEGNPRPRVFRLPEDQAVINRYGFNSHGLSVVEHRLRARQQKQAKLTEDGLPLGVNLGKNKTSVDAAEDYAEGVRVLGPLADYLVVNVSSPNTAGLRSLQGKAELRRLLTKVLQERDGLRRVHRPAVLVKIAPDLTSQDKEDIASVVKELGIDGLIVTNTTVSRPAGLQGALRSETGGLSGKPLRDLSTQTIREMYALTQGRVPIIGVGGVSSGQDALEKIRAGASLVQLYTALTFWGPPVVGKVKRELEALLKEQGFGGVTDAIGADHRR
Description: Inhibition of human C-terminal hexa-His tagged DHODH expressed in Escherichia coli by DCIP reduction assay

| Structure (SMILES) | IC50 [nM] |
| --- | --- |
| Cc1cc(Nc2ccc(C(F)(F)F)cc2)n2nc(C(C)(C)C)nc2n1 | > 100000 |
| CCOc1nc2nc(C)cc(Nc3cccc(Cl)c3)n2n1 | > 100000 |
| Cc1cc(Nc2ccc(Cl)cc2)n2nc(C3CC3)nc2n1 | > 100000 |
| CCOc1nc2nc(C)cc(Nc3ccc(Cl)cc3)n2n1 | > 100000 |
| CCC(F)(F)c1nc2nc(C)cc(Nc3cccc(Cl)c3)n2n1 | > 100000 |
| CCC(C)c1nc2nc(C)cc(Nc3ccc(C(F)(F)F)cc3)n2n1 (configuration not stated) | > 100000 |

Biological target: T1, Dihydroorotate dehydrogenase (Plasmodium falciparum, UniProt Q54A96)
T1 sequence (Q54A96 whole entry): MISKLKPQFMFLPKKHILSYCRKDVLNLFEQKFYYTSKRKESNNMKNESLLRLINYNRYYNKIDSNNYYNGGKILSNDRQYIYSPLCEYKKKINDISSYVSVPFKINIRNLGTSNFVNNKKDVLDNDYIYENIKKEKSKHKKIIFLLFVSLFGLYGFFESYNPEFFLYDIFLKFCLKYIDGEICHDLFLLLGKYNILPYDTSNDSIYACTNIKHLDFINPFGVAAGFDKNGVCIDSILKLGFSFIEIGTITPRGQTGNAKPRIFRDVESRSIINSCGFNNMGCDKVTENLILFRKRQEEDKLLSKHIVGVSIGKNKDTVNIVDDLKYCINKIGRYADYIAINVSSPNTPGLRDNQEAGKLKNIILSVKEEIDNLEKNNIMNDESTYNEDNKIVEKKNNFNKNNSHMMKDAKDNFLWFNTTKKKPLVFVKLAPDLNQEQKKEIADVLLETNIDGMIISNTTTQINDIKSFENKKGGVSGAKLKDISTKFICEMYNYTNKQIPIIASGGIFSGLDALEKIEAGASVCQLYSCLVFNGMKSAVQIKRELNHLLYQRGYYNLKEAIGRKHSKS
Description: Inhibition of Plasmodium falciparum C-terminal hexa-His tagged DHODH expressed in Escherichia coli by DCIP reduction assay

| Structure (SMILES) | IC50 [nM] |
| --- | --- |
| Cc1cc(Nc2cccc(Cl)c2)n2nc(CO)nc2n1 | 6100 |
| Cc1cc(Nc2ccc(Cl)cc2)n2nc(CO)nc2n1 | 5300 |
| Cc1cc(Nc2ccc(C(F)(F)F)cc2)n2nc(S(C)(=O)=O)nc2n1 | 90 |
| COCCOc1nc2nc(C)cc(Nc3cccc(Cl)c3)n2n1 | 4900 |
| Cc1cc(Nc2ccc(C(F)(F)F)cc2)n2nc(C(C)(C)C)nc2n1 | 460 |
| Cc1cc(Nc2ccc(S(F)(F)(F)(F)F)cc2)n2nc(S(C)(=O)=O)nc2n1 | 110 |
| CCOc1nc2nc(C)cc(Nc3cccc(Cl)c3)n2n1 | 400 |
| CSc1nc2nc(C)cc(Nc3ccc(Cl)cc3)n2n1 | 30 |
| CNCCc1nc2nc(C)cc(Nc3cccc(Cl)c3)n2n1 | > 10000 |
| Cc1cc(Nc2ccc(Cl)cc2)n2nc(C3CC3)nc2n1 | 880 |
| CNCCc1nc2nc(C)cc(Nc3ccc(Cl)cc3)n2n1 | > 10000 |
| Cc1cc(Nc2ccc(C(F)(F)F)cc2)n2nc(CC3CC3)nc2n1 | 1700 |
| Cc1cc(Nc2ccc(Cl)cc2)n2nc(S(C)(=O)=O)nc2n1 | 45 |
| CCOc1nc2nc(C)cc(Nc3ccc(Cl)cc3)n2n1 | 270 |
| CCC(F)(F)c1nc2nc(C)cc(Nc3cccc(Cl)c3)n2n1 | 30 |
| COc1nc2nc(C)cc(Nc3ccc(Cl)cc3)n2n1 | 460 |
| CCC(C)c1nc2nc(C)cc(Nc3ccc(C(F)(F)F)cc3)n2n1 (configuration not stated) | 380 |
